Source: patent US11826373B2, “Methods for treatment of diseases” (Galera Labs, LLC, priority 2011, dated 2023)

How the values were obtained:
Format in all cases: in vivo
[1] = tested on: healthy male and female subjects; experiment: Human Phase 1 single rising dose safety and tolerability of GC4403
Procedure: In a Phase 1 randomized, double-blind, placebo-controlled single rising dose safety, tolerability and pharmacokinetics study, 54 healthy male and female subjects were dosed from 2.2 to 25 mg of GC4403 administered intravenously over 30 minutes. Disposition of GC4403 is multi-exponential and follows linear pharmacokinetics with generally proportional increases in AUC and Cmax with increasing dose over the dose ranges studied. […] GC4403 is excreted unchanged in the urine and accounts for approximately 9 to 17% of the dose administered. No significant cardiovascular or vital sign effects, no significant physical examination abnormalities, and no significant abnormalities in routine clinical laboratory assessments were observed. Facial tingling, generalized tingling, paraesthesias and facial warmth were reported in a dose responsive manner, occurring at the 16.7 and 25 mg GC4403 doses.

Rats = experiment: Rat GC4419 14-day IV study; details: 20 mg/kg, Days 1 or 2
Procedure: (§1) GC4419 was evaluated in a 14-day GLP study in rats. GC4419 was administered to rats (10/sex/group) as 15 minute IV injections at dosages of 0, 5, 10 or 20 (15) mg/kg/day for 14 days. The control group received vehicle (sodium citrate in normal saline). Due to mortality at 20 mg/kg/day, the high dose group was decreased to 15 mg/kg/day on Day 3. Evaluations for compound-related effects were based on clinical observations, body weight, food consumption, hematology and clinical chemistry parameters, functional observation battery, organ weights and gross and microscopic postmortem examinations. […] There were no compound-related changes in organ weights or macroscopic or microscopic pathology. Based on the results of this study the NOAEL for GC4419 when administered to rats for 14 days as a 15 minute IV infusion was 15 mg/kg/day.

[2] = Rat GC4419 14-day IV study; details: both sexes, rat, in vivo; rats, 15 minute IV infusion, 14 days
Procedure: as §1

[Cl][Mn-5]1234([Cl])[n+]5c6cccc5C[NH+]1[C@@H]1CCCC[C@H]1[NH+]2CC[NH+]3[C@@H]1CCCC[C@H]1[NH+]4C6 (stereo partly drawn) [GC4403]
4 (33.3) N (%): Injection Site Pain (treatment-emergent adverse event) ([1]; 25.0 mg, 12 subjects dosed)
0 (0) N (%): Cough (treatment-emergent adverse event) ([1]; 2.2 mg, 4 subjects dosed) | Discolored Urine (treatment-emergent adverse event) ([1]; 2.2 mg, 4 subjects dosed) | Drowsiness (treatment-emergent adverse event) ([1]; 2.2 mg, 4 subjects dosed) | Facial Warmth (treatment-emergent adverse event) ([1]; 2.2 mg, 4 subjects dosed) | Feeling Drunk (treatment-emergent adverse event) ([1]; 2.2 mg, 4 subjects dosed) | Headache (treatment-emergent adverse event) ([1]; 2.2 mg, 4 subjects dosed) | Inj. Site Pressure (treatment-emergent adverse event) ([1]; 2.2 mg, 4 subjects dosed) | Inj. Site Reaction (treatment-emergent adverse event) ([1]; 2.2 mg, 4 subjects dosed) | Injection Site Pain (treatment-emergent adverse event) ([1]; 2.2 mg, 4 subjects dosed) | Lightheadedness (treatment-emergent adverse event) ([1]; 2.2 mg, 4 subjects dosed) | Paresthesia (treatment-emergent adverse event) ([1]; 2.2 mg, 4 subjects dosed) | Skin Tightness (treatment-emergent adverse event) ([1]; 2.2 mg, 4 subjects dosed) | Taste Perversion (treatment-emergent adverse event) ([1]; 2.2 mg, 4 subjects dosed) | Tingling (treatment-emergent adverse event) ([1]; 2.2 mg, 4 subjects dosed) | Tingling Mouth (treatment-emergent adverse event) ([1]; 2.2 mg, 4 subjects dosed) | Conjunctivitis (treatment-emergent adverse event) ([1]; 3.3 mg, 4 subjects dosed) | Cough (treatment-emergent adverse event) ([1]; 3.3 mg, 4 subjects dosed) | Discolored Urine (treatment-emergent adverse event) ([1]; 3.3 mg, 4 subjects dosed) | Drowsiness (treatment-emergent adverse event) ([1]; 3.3 mg, 4 subjects dosed) | Facial Warmth (treatment-emergent adverse event) ([1]; 3.3 mg, 4 subjects dosed) | Feeling Drunk (treatment-emergent adverse event) ([1]; 3.3 mg, 4 subjects dosed) | Headache (treatment-emergent adverse event) ([1]; 3.3 mg, 4 subjects dosed) | Inj. Site Pressure (treatment-emergent adverse event) ([1]; 3.3 mg, 4 subjects dosed) | Injection Site Pain (treatment-emergent adverse event) ([1]; 3.3 mg, 4 subjects dosed) | Paresthesia (treatment-emergent adverse event) ([1]; 3.3 mg, 4 subjects dosed) | Skin Tightness (treatment-emergent adverse event) ([1]; 3.3 mg, 4 subjects dosed) | Taste Perversion (treatment-emergent adverse event) ([1]; 3.3 mg, 4 subjects dosed) | Tingling (treatment-emergent adverse event) ([1]; 3.3 mg, 4 subjects dosed) | Tingling Mouth (treatment-emergent adverse event) ([1]; 3.3 mg, 4 subjects dosed) | Conjunctivitis (treatment-emergent adverse event) ([1]; 4.9 mg, 4 subjects dosed) | Cough (treatment-emergent adverse event) ([1]; 4.9 mg, 4 subjects dosed) | Discolored Urine (treatment-emergent adverse event) ([1]; 4.9 mg, 4 subjects dosed) | Drowsiness (treatment-emergent adverse event) ([1]; 4.9 mg, 4 subjects dosed) | Facial Warmth (treatment-emergent adverse event) ([1]; 4.9 mg, 4 subjects dosed) | Feeling Drunk (treatment-emergent adverse event) ([1]; 4.9 mg, 4 subjects dosed) | Headache (treatment-emergent adverse event) ([1]; 4.9 mg, 4 subjects dosed) | Inj. Site Pressure (treatment-emergent adverse event) ([1]; 4.9 mg, 4 subjects dosed) | Inj. Site Reaction (treatment-emergent adverse event) ([1]; 4.9 mg, 4 subjects dosed) | Injection Site Pain (treatment-emergent adverse event) ([1]; 4.9 mg, 4 subjects dosed) | Lightheadedness (treatment-emergent adverse event) ([1]; 4.9 mg, 4 subjects dosed) | Paresthesia (treatment-emergent adverse event) ([1]; 4.9 mg, 4 subjects dosed) | Skin Tightness (treatment-emergent adverse event) ([1]; 4.9 mg, 4 subjects dosed) | Taste Perversion (treatment-emergent adverse event) ([1]; 4.9 mg, 4 subjects dosed) | Tingling (treatment-emergent adverse event) ([1]; 4.9 mg, 4 subjects dosed) | Tingling Mouth (treatment-emergent adverse event) ([1]; 4.9 mg, 4 subjects dosed) | Conjunctivitis (treatment-emergent adverse event) ([1]; 7.4 mg, 4 subjects dosed) | Cough (treatment-emergent adverse event) ([1]; 7.4 mg, 4 subjects dosed) | Discolored Urine (treatment-emergent adverse event) ([1]; 7.4 mg, 4 subjects dosed) | Drowsiness (treatment-emergent adverse event) ([1]; 7.4 mg, 4 subjects dosed) | Facial Warmth (treatment-emergent adverse event) ([1]; 7.4 mg, 4 subjects dosed) | Feeling Drunk (treatment-emergent adverse event) ([1]; 7.4 mg, 4 subjects dosed) | Inj. Site Reaction (treatment-emergent adverse event) ([1]; 7.4 mg, 4 subjects dosed) | Injection Site Pain (treatment-emergent adverse event) ([1]; 7.4 mg, 4 subjects dosed) | Lightheadedness (treatment-emergent adverse event) ([1]; 7.4 mg, 4 subjects dosed) | Paresthesia (treatment-emergent adverse event) ([1]; 7.4 mg, 4 subjects dosed) | Skin Tightness (treatment-emergent adverse event) ([1]; 7.4 mg, 4 subjects dosed) | Taste Perversion (treatment-emergent adverse event) ([1]; 7.4 mg, 4 subjects dosed) | Tingling (treatment-emergent adverse event) ([1]; 7.4 mg, 4 subjects dosed) | Tingling Mouth (treatment-emergent adverse event) ([1]; 7.4 mg, 4 subjects dosed) | Any Event (treatment-emergent adverse event) ([1]; 11.1 mg, 4 subjects dosed) | Conjunctivitis (treatment-emergent adverse event) ([1]; 11.1 mg, 4 subjects dosed) | Cough (treatment-emergent adverse event) ([1]; 11.1 mg, 4 subjects dosed) | Discolored Urine (treatment-emergent adverse event) ([1]; 11.1 mg, 4 subjects dosed) | Drowsiness (treatment-emergent adverse event) ([1]; 11.1 mg, 4 subjects dosed) | Facial Warmth (treatment-emergent adverse event) ([1]; 11.1 mg, 4 subjects dosed) | Feeling Drunk (treatment-emergent adverse event) ([1]; 11.1 mg, 4 subjects dosed) | Headache (treatment-emergent adverse event) ([1]; 11.1 mg, 4 subjects dosed) | Inj. Site Pressure (treatment-emergent adverse event) ([1]; 11.1 mg, 4 subjects dosed) | Inj. Site Reaction (treatment-emergent adverse event) ([1]; 11.1 mg, 4 subjects dosed) | Injection Site Pain (treatment-emergent adverse event) ([1]; 11.1 mg, 4 subjects dosed) | Lightheadedness (treatment-emergent adverse event) ([1]; 11.1 mg, 4 subjects dosed) | Paresthesia (treatment-emergent adverse event) ([1]; 11.1 mg, 4 subjects dosed) | Skin Tightness (treatment-emergent adverse event) ([1]; 11.1 mg, 4 subjects dosed) | Taste Perversion (treatment-emergent adverse event) ([1]; 11.1 mg, 4 subjects dosed) | Tingling (treatment-emergent adverse event) ([1]; 11.1 mg, 4 subjects dosed) | Tingling Mouth (treatment-emergent adverse event) ([1]; 11.1 mg, 4 subjects dosed) | Conjunctivitis (treatment-emergent adverse event) ([1]; 16.7 mg, 4 subjects dosed) | Discolored Urine (treatment-emergent adverse event) ([1]; 16.7 mg, 4 subjects dosed) | Drowsiness (treatment-emergent adverse event) ([1]; 16.7 mg, 4 subjects dosed) | Facial Warmth (treatment-emergent adverse event) ([1]; 16.7 mg, 4 subjects dosed) | Feeling Drunk (treatment-emergent adverse event) ([1]; 16.7 mg, 4 subjects dosed) | Inj. Site Pressure (treatment-emergent adverse event) ([1]; 16.7 mg, 4 subjects dosed) | Inj. Site Reaction (treatment-emergent adverse event) ([1]; 16.7 mg, 4 subjects dosed) | Lightheadedness (treatment-emergent adverse event) ([1]; 16.7 mg, 4 subjects dosed) | Paresthesia (treatment-emergent adverse event) ([1]; 16.7 mg, 4 subjects dosed) | Skin Tightness (treatment-emergent adverse event) ([1]; 16.7 mg, 4 subjects dosed) | Taste Perversion (treatment-emergent adverse event) ([1]; 16.7 mg, 4 subjects dosed) | Tingling Mouth (treatment-emergent adverse event) ([1]; 16.7 mg, 4 subjects dosed) | Conjunctivitis (treatment-emergent adverse event) ([1]; 25.0 mg, 12 subjects dosed) | Cough (treatment-emergent adverse event) ([1]; 25.0 mg, 12 subjects dosed)
3 (25.0) N (%): Tingling (treatment-emergent adverse event) ([1]; 25.0 mg, 12 subjects dosed)
no severe adverse events: tolerability of single doses up to 25 mg ([1]; healthy subjects)
3 (75) N (%): Any Event (treatment-emergent adverse event) ([1]; 7.4 mg, 4 subjects dosed)
1 (25) N (%): Any Event (treatment-emergent adverse event) ([1]; 2.2 mg, 4 subjects dosed) | Conjunctivitis (treatment-emergent adverse event) ([1]; 2.2 mg, 4 subjects dosed) | Inj. Site Reaction (treatment-emergent adverse event) ([1]; 3.3 mg, 4 subjects dosed) | Lightheadedness (treatment-emergent adverse event) ([1]; 3.3 mg, 4 subjects dosed) | Any Event (treatment-emergent adverse event) ([1]; 4.9 mg, 4 subjects dosed) | Headache (treatment-emergent adverse event) ([1]; 7.4 mg, 4 subjects dosed) | Inj. Site Pressure (treatment-emergent adverse event) ([1]; 7.4 mg, 4 subjects dosed) | Cough (treatment-emergent adverse event) ([1]; 16.7 mg, 4 subjects dosed) | Headache (treatment-emergent adverse event) ([1]; 16.7 mg, 4 subjects dosed) | Injection Site Pain (treatment-emergent adverse event) ([1]; 16.7 mg, 4 subjects dosed)
1 (8.3) N (%): Discolored Urine (treatment-emergent adverse event) ([1]; 25.0 mg, 12 subjects dosed) | Drowsiness (treatment-emergent adverse event) ([1]; 25.0 mg, 12 subjects dosed) | Facial Warmth (treatment-emergent adverse event) ([1]; 25.0 mg, 12 subjects dosed) | Feeling Drunk (treatment-emergent adverse event) ([1]; 25.0 mg, 12 subjects dosed) | Headache (treatment-emergent adverse event) ([1]; 25.0 mg, 12 subjects dosed) | Inj. Site Pressure (treatment-emergent adverse event) ([1]; 25.0 mg, 12 subjects dosed) | Inj. Site Reaction (treatment-emergent adverse event) ([1]; 25.0 mg, 12 subjects dosed) | Paresthesia (treatment-emergent adverse event) ([1]; 25.0 mg, 12 subjects dosed) | Skin Tightness (treatment-emergent adverse event) ([1]; 25.0 mg, 12 subjects dosed) | Taste Perversion (treatment-emergent adverse event) ([1]; 25.0 mg, 12 subjects dosed)
5 (41.7) N (%): Tingling Mouth (treatment-emergent adverse event) ([1]; 25.0 mg, 12 subjects dosed)
2 (16.7) N (%): Lightheadedness (treatment-emergent adverse event) ([1]; 25.0 mg, 12 subjects dosed)
10 (87.3) N (%): Any Event (treatment-emergent adverse event) ([1]; 25.0 mg, 12 subjects dosed)
2 (50) N (%): Any Event (treatment-emergent adverse event) ([1]; 3.3 mg, 4 subjects dosed) | Any Event (treatment-emergent adverse event) ([1]; 16.7 mg, 4 subjects dosed) | Tingling (treatment-emergent adverse event) ([1]; 16.7 mg, 4 subjects dosed)
not established: maximum tolerated dose (MTD) ([1]; 2.2 to 25 mg IV over 30 minutes)

[Cl][Mn-5]1234([Cl])[n+]5c6cccc5C[NH+]1[C@H]1CCCC[C@@H]1[NH+]2CC[NH+]3[C@H]1CCCC[C@@H]1[NH+]4C6 (stereo partly drawn) [GC4419]
Several rats died: mortality (Rats)
15 mg/kg/day: NOAEL at 14 days [2]
